Data taken from article PMC7749390, “Neuroprotective activity of Ulmus pumila L. in Alzheimer's disease in rats; role of neurotrophic factors” (Heliyon, 2020).
≈ marks a conversion by molar mass, not a printed value. Where two headings read alike, the source gives them in different places.

Experiments:
Electric-eel AChE = biological target: T1, Electric-eel AChE (Electrophorus electricus, UniProt O42275); experiment: biochemical; conditions: for inhibition at 6.25 µM: read-out: % Inhibition 6.25μM; for inhibition at 12.5 µM: read-out: % Inhibition 12.5μM; for inhibition at 25 µM: read-out: % Inhibition 25μM; for inhibition at 50 µM: read-out: % Inhibition 50μM
T1 construct: purchased Sigma
Experimental: The reaction mixture contained 150 μL of (100 mM) sodium phosphate buffer (pH 8.0), 10 μL of 5,5-Dithiobis-(2-nitrobenzoic acid) (DTNB, Sigma), 10 μL of test-extract solution and 20 μL of acetyl cholinesterase solution (Electric-eel AChE- Sigma) were mixed and incubated for 15 min (37 °C) followed by the addition of 10ml of acetylthiocholine (Sigma) to initiate the reaction. Hydrolysis of acetylthiocholine was monitored by the formation of yellow 5-thio-2- nitrobenzoate anion measured by UV- Vis Shimadzu spectrophotometer-USA at a wavelength of 412 nm (15 min).
Statistical analysis: reactions were carried out in triplicates and the data were expressed as mean ± SEM. The inhibitory concentration (IC50) of the total extract and each compound, was graphically evaluated by a non-linear regression method using Graph Pad Prism (Ver. 5.0) software.

[1] = DPPH radical scavenging assay
[2] = Superoxide anion scavenging assay
[3] = table, mean ± SEM, n = 3, read-out: IC50

T1 sequence (O42275 24-633): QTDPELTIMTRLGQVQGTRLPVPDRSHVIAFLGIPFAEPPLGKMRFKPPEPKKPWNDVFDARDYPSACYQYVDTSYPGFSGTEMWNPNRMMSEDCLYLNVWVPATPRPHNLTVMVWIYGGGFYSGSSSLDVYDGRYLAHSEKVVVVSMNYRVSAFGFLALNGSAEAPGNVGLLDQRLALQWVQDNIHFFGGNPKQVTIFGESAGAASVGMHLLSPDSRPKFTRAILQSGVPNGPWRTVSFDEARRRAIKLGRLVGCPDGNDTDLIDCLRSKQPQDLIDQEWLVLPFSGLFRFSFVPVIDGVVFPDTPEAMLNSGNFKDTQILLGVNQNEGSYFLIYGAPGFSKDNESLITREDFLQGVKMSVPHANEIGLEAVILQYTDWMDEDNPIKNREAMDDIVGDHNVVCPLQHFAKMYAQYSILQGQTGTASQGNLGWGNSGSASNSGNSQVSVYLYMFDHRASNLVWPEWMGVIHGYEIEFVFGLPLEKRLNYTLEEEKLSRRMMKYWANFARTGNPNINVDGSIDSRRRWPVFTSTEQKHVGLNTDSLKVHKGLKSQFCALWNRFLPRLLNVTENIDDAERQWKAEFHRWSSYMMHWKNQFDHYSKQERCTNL

| Structure (SMILES) | IC50 (Electric-eel AChE) [µM] | inhibition at 6.25 µM (Electric-eel AChE; 6.25μM, mean ± SEM, n = 3) [%] | inhibition at 12.5 µM (Electric-eel AChE; 12.5μM, mean ± SEM, n = 3) [%] | inhibition at 25 µM (Electric-eel AChE; 25μM, mean ± SEM, n = 3) [%] | inhibition at 50 µM (Electric-eel AChE; 50μM, mean ± SEM, n = 3) [%] | IC50 (Electric-eel AChE; [3]) [µM] | also measured |
| --- | --- | --- | --- | --- | --- | --- | --- |
| O=c1c(O[C@@H]2O[C@H](CO)[C@@H](O)[C@H](O)[C@H]2O)c(-c2ccc(O)cc2)oc2cc(O)cc(O)c12 [Compound 3, kaempferol 3-o-β-D-glucoside] | 29.03 ± 0.0155 |  |  |  |  |  | inhibition at 6.25 µM (Electric-eel AChE): 3.7 ± 0.6%; inhibition at 12.5 µM (Electric-eel AChE): 14.6 ± 1.2%; inhibition at 25 µM (Electric-eel AChE): 39.4 ± 0.8%; inhibition at 50 µM (Electric-eel AChE): 79.3 ± 0.8% |
| CN(CCCCCCN(C)C(=O)Oc1ccc[n+](C)c1)C(=O)Oc1ccc[n+](C)c1 [distigmine bromide, reference compound] | 26.83 ± 0.02 |  |  |  |  |  |  |
| O=C1O[C@H]([C@@H](O)CO)C(O)=C1O [ascorbic acid] |  |  |  |  |  |  | IC50, free radical scavenging activity (DPPH assay) [1]: 5.6 µg/mL (≈ 31.8 µM) |
| CC1OC(OCC2OC(Oc3c(-c4ccc(O)cc4)oc4cc(O)cc(O)c4c3=O)C(O)C(O)C2O)C(O)C(O)C1O (stereo not shown) [Compound 8, Kaempferol 3-o-robinobioside] |  | 1.5 ± 0.8 | 4.4 ± 0.9 | 19.9 ± 1.8 | 59.3 ± 2.9 | 43.13 ± 0.13 |  |
| O=c1c(O[C@@H]2O[C@H](CO)[C@@H](O)[C@H](O)[C@H]2O)c(-c2ccc(O)c(O)c2)oc2cc(O)cc(O)c12 [Compound 5, quercetin-3-O-β-D-gulucopyranoside] | 31.72 ± 0.017 |  |  |  |  |  | inhibition at 6.25 µM (Electric-eel AChE): 3.9 ± 1%; inhibition at 12.5 µM (Electric-eel AChE): 14.4 ± 0.9%; inhibition at 25 µM (Electric-eel AChE): 36.3 ± 1.6%; inhibition at 50 µM (Electric-eel AChE): 72.8 ± 2.6% |
| O=c1c(O)c(-c2ccc(O)c(O)c2)oc2cc(O)cc(O)c12 [quercetin] |  |  |  |  |  |  | IC50, superoxide anion radical inhibitory activity [2]: 45.3 ± 1.6 µg/mL (≈ 150 µM) |
| Oc1cc(O)c2c(c1)O[C@H](c1ccc(O)c(O)c1)[C@H](O)C2 [Compound 2, (-)-epicatechin] |  | 4.7 ± 0.7 | 19.6 ± 2.6 | 33.7 ± 1.2 | 73.6 ± 1.8 | 31.62 ± 0.04 |  |
| Oc1cc(O)c2c(c1)OC(c1ccc(O)c(O)c1)C(O)C2 (single isomer, unassigned; (+)) [Compound 1, (+)-catechin] |  | 4.6 ± 1 | 16.2 ± 2.4 | 32.5 ± 2.5 | 70.3 ± 1.2 | 33.61 ± 0.0295 |  |
